The values that follow come from US11912723B2, “KRAS modulators and uses thereof” (Quanta Therapeutics, Inc., priority 2022, dated 2024).

Type in all cases: binding
One test deals with T1, KRAS G12D/RAF1 (Homo sapiens, UniProt P01116, G12D).
T1 construct: KRAS (1-169) proteins were expressed in E. coli at 18° C; His6-MBP (N, cleaved yes); made in house; host or cells: E. coli
Description: Protein-protein interaction (PPI) HTRF assay KRAS G12D/RAF1. To be noted: KRAS G12D/RAF1, GppNHp-loaded KRAS; 30 minutes pre-incubation. Put shortly:
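Biotinylated GppNHp-loaded RAS (1-169) on streptavidin-d2 acceptor and His-RAF1 RBD (52-131) on anti-His Tb donor, each prepared at 16 nM in pH 7.5 Tris buffer. Compound preincubated with RAS 30 min, then RAF1 added for 1 h at room temperature. IC50 from HTRF 665/615 ratio, normalized to no compound (0%) and untagged RAF1 (100%).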

The next test has as its target T2, KRAS G12V/RAF1 (Homo sapiens, UniProt P01116, G12V).
T2 construct: KRAS (1-169) proteins were expressed in E. coli at 18° C; His6-MBP (N, cleaved yes); made in house; host or cells: E. coli
The test is described as follows: Protein-protein interaction (PPI) HTRF assay KRAS G12V/RAF1. The following applies: KRASG12V/RAF1. How it is done: (§1) Biotinylated KRAS wt and KRAS G12DNV proteins were expressed and purified in conditions similar to those previously reported (Tran, et al., 2021) (Zhang, et al., 2020). Briefly, KRAS (1-169) proteins were expressed in E. coli at 18° C. with an upstream TEV cleavage site (ENLFYQS) followed an Avi tag sequence ([…]). KIRAS expression constructs contained both a His6 and maltose-binding protein (MBP) tags at the N-terminus for Ni-NTA column purification prior to overnight TEV cleavage and MBP column purification. The avi-tagged NRAS expression construct contained both a His6 tag and SUMO cleavage sige at the N-terminus for Ni-NTA column purification followed by His-ULP1 digestion overnight. All avi-tagged RAS proteins were dialyzed into buffer containing ATP, biotin, and BirA followed by purification over a second Ni-NTA column and then run over a size exclusion HiLoad™ 26/600 Superdex™ column in 20 mM HEPES, pH 7.5, 300 mM NaCl, 5 mM MgCl2, and 1 mM TCEP. Fractions containing the protein of interest were pooled, concentrated, and confirmed by intact mass spectrometry. To prepare ‘GTP’ loaded KRAS and NRAS, biotinylated KRAS or NRAS was nucleotide exchanged from GDP-bound protein to GppNHp-bound (Jena Biosciences, NU-401-50) protein in the presence of alkaline phosphatase and excess GppNHp as previously described and the resulting nucleotide content was confirmed by HPLC reverse phase analytical chromatography (Donohue, et al., 2019) (Tran, et al., 2021).
(§2) His-tagged RAF1 (52-131) was similarly expressed in E. coli at 18° C. overnight with an upstream TEV cleavage site. His-tagged RAF1 expression construct contained both a His6 and MBP tags at the N-terminus for Ni-NTA column purification followed by MBP-tagged TEV digestion overnight. RAF1 protein samples were further purified over a MBP column followed by a Ni-NTA column and a second MBP column. The fractions containing the protein of interest were pooled, concentrated, and further purified over a HiLoad™ 16/600 Superdex™ 75 pg size exclusion column into 20 mM HEPES, pH8.0, 200 mM NaCl, 5 mM TCEP.
(§3) When RAS proteins are in the active GTP-bound conformation, they bind the effector protein RAF1 at the N-terminus Ras-binding domain (RBD, residues 52-131) (Tran, et al., 2021). Homogenous time resolved fluorescence (HTRF) was used to monitor the interaction between wt or mutant KRAS and RAF1 or wt NRAS and RAFT. Compounds were assayed in the presence of KRAS G12D/V and RAF1 versus wt KRAS to assess activity against mutant and w.t. KRAS. Similarly, compounds were then assayed in the presence of w.t. NRAS and RAF1 to assess RAS isoform selectivity. In all assay formats, His-tagged RAF1 protein was incubated with the HTRF donor, anti-6His Tb Cryptate gold (Cisbio 61DB10RDF), and biotinylated RAS proteins were incubated with the HTRF acceptor, streptavidin-d2 (CisBio 610SADLA). The intensity of the fluorescence signal emitted is proportional to binding between the two proteins. The donor solution was prepared by mixing 16 nM His-tagged RAF1 in protein dilution buffer with 1:100 anti-6His Tb cryptate in PPI-Terbium detection buffer. 16 nM biotinylated RAS protein was diluted into protein dilution buffer (50 mM Tris-HCl pH 7.5, 150 mM NaCl, 0.1 mM MgCl2, 1 mM TCEP, 0.005% Tween20) and mixed with 1:2000 Streptavidin-d2 diluted in PPI-Terbium detection buffer (CisBio 61DB10RDF). 50× compound in DMSO was mixed with 16 nM KRAS-acceptor solution and incubated for 30 minutes at room temperature. After compound pre-incubation with KRAS, the RAF1 donor solution was added to the KRAS-acceptor solution and incubated for 1 hour at room temperature. The fluorescence signal emitted was monitored at 665 nm and 615 nm using an Envision multimode plate reader. The HTRF ratio (665/615) was calculated and normalized to 0% inhibition in the absence of compound and 100% inhibition in the presence of untagged RAF1 protein. […]
For orientation: Time-resolved FRET reads energy transfer from a long-lived donor to a nearby acceptor.

A further test deals with T3, wtKRAS/RAF1 (Homo sapiens, UniProt P01116).
T3 construct: KRAS (1-169) proteins were expressed in E. coli at 18° C; His6-MBP (N, cleaved yes); made in house; host or cells: E. coli
T3 sequence (P01116 1-169 isoform P01116-2): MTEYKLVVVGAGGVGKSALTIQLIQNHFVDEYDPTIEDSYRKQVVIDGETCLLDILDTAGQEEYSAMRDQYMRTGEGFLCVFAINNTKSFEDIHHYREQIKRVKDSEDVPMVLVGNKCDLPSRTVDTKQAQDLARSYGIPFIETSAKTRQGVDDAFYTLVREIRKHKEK
Description: Protein-protein interaction (PPI) HTRF assay w.t.KRAS/RAF1. How it is done:
as §1, §2, §3

For a further test, the target named is T4, wtNRAS/RAF1 (Homo sapiens, UniProt P01111).
T4 construct: (1-169); His6-SUMO (N, cleaved yes); made in house; host or cells: E. coli (printed for the KRAS and RAF1 constructs; not explicitly for NRAS)
T4 sequence (P01111 1-169): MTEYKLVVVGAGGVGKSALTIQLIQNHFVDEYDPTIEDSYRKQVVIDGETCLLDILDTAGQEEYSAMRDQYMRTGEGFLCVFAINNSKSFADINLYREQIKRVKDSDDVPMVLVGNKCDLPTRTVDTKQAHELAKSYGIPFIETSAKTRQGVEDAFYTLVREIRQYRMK
The test is described as follows: Protein-protein interaction (PPI) HTRF assay w.t.NRAS/RAF1. As to the method: as §1, §2, §3

For orientation: IC50 means the concentration that gives 50% inhibition. A high value points to weaker potency.

T2 sequence (P01116 1-169 isoform P01116-2 G12V): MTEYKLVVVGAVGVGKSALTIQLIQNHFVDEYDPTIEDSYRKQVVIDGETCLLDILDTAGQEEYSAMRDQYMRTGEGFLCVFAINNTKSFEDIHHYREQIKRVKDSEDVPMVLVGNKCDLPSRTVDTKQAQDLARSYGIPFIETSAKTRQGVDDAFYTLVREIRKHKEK
T1 sequence (P01116 1-169 isoform P01116-2 G12D): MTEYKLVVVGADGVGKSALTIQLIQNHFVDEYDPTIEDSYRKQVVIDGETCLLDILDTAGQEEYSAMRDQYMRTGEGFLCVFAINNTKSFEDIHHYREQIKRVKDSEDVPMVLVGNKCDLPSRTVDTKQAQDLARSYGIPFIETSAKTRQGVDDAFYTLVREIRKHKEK

On to `CN(C)C(=O)c1nn2c(c1Cl)CN(c1nc(OC[C@@]34CCCN3C[C@H](F)C4)nc3c1CN(C)[C@@]1(CCc4ccccc41)C3)CCC2` [Compound 53, 3-chloro-5-[(7S)-2-[[(2R,8S)-2-fluoro-1,2,3,5,6,7-hexahydropyrrolizin-8-yl]methoxy]-6-methyl-spiro[5,8-dihydropyrido[4,3-d]pyrimidine-7,1′-indane]-4-yl]-N,N-dimethyl-4,6,7,8-tetrahydropyrazolo[1,5-a][1,4]diazepine-2-carboxamide], for which the IC50 on KRAS G12D/RAF1 was 10 to 100 µM; on KRAS G12V/RAF1 it was 10 to 100 µM; on wtKRAS/RAF1, 10 to 100 µM; at wtNRAS/RAF1 it was over 100 µM.

With `CN(C)C(=O)c1nn2c(c1Cl)CN(c1nc(OC[C@@]34CCCN3C[C@H](F)C4)nc3c1CN(C)[C@@]1(CCCc4ccccc41)C3)CCC2` [Compound 64, 3-chloro-5-[(7S)-2-[[(2R,8S)-2-fluoro-1,2,3,5,6,7-hexahydropyrrolizin-8-yl]methoxy]-6-methyl-spiro[5,8-dihydropyrido[4,3-d]pyrimidine-7,1′-tetralin]-4-yl]-N,N-dimethyl-4,6,7,8-tetrahydropyrazolo[1,5-a][1,4]diazepine-2-carboxamide], the IC50 against KRAS G12D/RAF1 was 10 to 100 µM; at KRAS G12V/RAF1, 10 to 100 µM; against wtNRAS/RAF1 it was over 100 µM.

Regarding `C#Cc1c(C(=O)N(C)C)nn2c1CN(c1nc(OC[C@@]34CCCN3C[C@H](F)C4)nc3c1CN(C)[C@@]1(CCCc4ccccc41)C3)CCC2` [Compound 81, 3-ethynyl-5-[(7S)-2-[[(2R,8S)-2-fluoro-1,2,3,5,6,7-hexahydropyrrolizin-8-yl]methoxy]-6-methyl-spiro[5,8-dihydropyrido[4,3-d]pyrimidine-7,1′-tetralin]-4-yl]-N,N-dimethyl-4,6,7,8-tetrahydropyrazolo[1,5-a][1,4]diazepine-2-carboxamide], the IC50 against KRAS G12D/RAF1 is 10 to 100 µM; against KRAS G12V/RAF1, 10 to 100 µM; against wtKRAS/RAF1, 10 to 100 µM; on wtNRAS/RAF1, over 100 µM.

`Cc1nnc(-c2nn3c(c2Cl)CN(c2nc(OC[C@@]45CCCN4C[C@H](F)C5)nc4c2CN(C)[C@@]2(CCCc5ccccc52)C4)CCC3)n1C` [Compound 90, (7S)-4-[3-chloro-2-(4,5-dimethyl-1,2,4-triazol-3-yl)-4,6,7,8-tetrahydropyrazolo[1,5-a][1,4]diazepin-5-yl]-2-[[(2R,8S)-2-fluoro-1,2,3,5,6,7-hexahydropyrrolizin-8-yl]methoxy]-6-methyl-spiro[5,8-dihydropyrido[4,3-d]pyrimidine-7,1′-tetralin]]: the IC50 at KRAS G12D/RAF1 is 10 to 100 µM; against KRAS G12V/RAF1 it was 10 to 100 µM; on wtKRAS/RAF1, over 100 µM; against wtNRAS/RAF1, over 100 µM.

Turning to `CN(C)C(=O)c1nn2c(c1Cl)CN(c1nc(OC[C@@]34CCCN3C[C@H](F)C4)nc3c1CN(C)[C@@]1(CCc4cccc(O)c41)C3)CCC2` [Compound 96, 3-chloro-5-[(7S)-2-[[(2R,8S)-2-fluoro-1,2,3,5,6,7-hexahydropyrrolizin-8-yl]methoxy]-7′-hydroxy-6-methyl-spiro[5,8-dihydropyrido[4,3-d]pyrimidine-7,1′-indane]-4-yl]-N,N-dimethyl-4,6,7,8-tetrahydropyrazolo[1,5-a][1,4]diazepine-2-carboxamide], the IC50 is 10 to 100 µM against KRAS G12D/RAF1, 10 to 100 µM against KRAS G12V/RAF1, over 100 µM against wtKRAS/RAF1 and over 100 µM against wtNRAS/RAF1.
